# From ChEMBL document CHEMBL3352417, “Confronting the challenges of discovery of novel antibacterial agents” (Bioorg Med Chem Lett, 2014)
# Assays:
# [1] = Inhibition of Enterococcus faecalis DNA gyrase subunit B
# [2] = Inhibition of Enterococcus faecalis ParE
# Staphylococcus aureus = assay: Antimicrobial activity against Staphylococcus aureus; format: functional
# Streptococcus pneumoniae = assay: Antimicrobial activity against Streptococcus pneumoniae; format: functional
# [3] = molecular target: Voltage-gated inwardly rectifying potassium channel KCNH2 (Homo sapiens, UniProt Q12809); assay: Inhibition of human ERG
# Sequence of Voltage-gated inwardly rectifying potassium channel KCNH2 (Q12809 whole entry): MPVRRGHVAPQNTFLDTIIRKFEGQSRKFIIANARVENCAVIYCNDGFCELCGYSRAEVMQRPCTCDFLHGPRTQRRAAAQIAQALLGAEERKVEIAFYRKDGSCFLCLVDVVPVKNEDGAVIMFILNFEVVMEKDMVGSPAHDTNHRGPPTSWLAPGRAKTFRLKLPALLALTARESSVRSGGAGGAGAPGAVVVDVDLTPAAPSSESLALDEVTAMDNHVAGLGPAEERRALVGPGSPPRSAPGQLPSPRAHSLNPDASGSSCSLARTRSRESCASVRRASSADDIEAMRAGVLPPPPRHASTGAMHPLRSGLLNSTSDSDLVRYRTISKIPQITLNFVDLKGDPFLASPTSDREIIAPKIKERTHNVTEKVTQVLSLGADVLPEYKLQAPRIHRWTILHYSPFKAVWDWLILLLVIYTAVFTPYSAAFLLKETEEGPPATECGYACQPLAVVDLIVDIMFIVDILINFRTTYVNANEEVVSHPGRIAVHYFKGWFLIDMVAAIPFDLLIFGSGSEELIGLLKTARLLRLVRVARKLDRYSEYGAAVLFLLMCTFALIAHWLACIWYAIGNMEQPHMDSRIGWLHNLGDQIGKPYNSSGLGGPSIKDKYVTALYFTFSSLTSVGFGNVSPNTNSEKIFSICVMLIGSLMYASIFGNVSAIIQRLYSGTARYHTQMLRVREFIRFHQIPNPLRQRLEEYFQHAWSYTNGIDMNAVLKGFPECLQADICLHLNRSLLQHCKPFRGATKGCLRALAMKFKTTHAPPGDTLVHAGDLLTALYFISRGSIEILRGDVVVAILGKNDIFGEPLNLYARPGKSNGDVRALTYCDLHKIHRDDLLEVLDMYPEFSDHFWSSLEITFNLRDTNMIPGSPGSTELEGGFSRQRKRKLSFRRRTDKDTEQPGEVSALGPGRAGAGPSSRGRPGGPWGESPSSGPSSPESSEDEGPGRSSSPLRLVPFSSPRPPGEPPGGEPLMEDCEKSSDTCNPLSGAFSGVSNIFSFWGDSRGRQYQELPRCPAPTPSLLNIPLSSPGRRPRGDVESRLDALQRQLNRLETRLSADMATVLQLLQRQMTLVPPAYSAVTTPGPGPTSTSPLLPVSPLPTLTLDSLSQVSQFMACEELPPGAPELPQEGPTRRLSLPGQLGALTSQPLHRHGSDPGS
# [4] = Inhibition of beta-lactamase (unknown origin)
compound,measurement,setting,value
CNc1cc(F)cc2c1[nH]c1nc(Oc3cnc(C)nc3)nc(N3CC4[C@H](N)C[C@]4(C)C3)c12 (stereo partly specified),IC50,[1],< 0.0003 µM
same,IC50,[2],< 0.0003 µM
O=c1ccc2ncc(=O)n3c2n1C[C@H]3CN1CCC(NCc2cc3c(cn2)OCCC3)CC1 [GEPOTIDACIN],MIC90,Staphylococcus aureus,0.5 µg/mL
same,MIC90,Streptococcus pneumoniae,0.25 µg/mL
same,IC50,[3],1400 µM
O=C(O)C[C@@H]1CC[C@H](NC(=O)Cc2cccs2)B(O)O1 [VABORBACTAM],IC50,[4],0.009 µM
